Reference: patent US20250179024A1, “AMYLOID AND ASSOCIATED PATHOLOGY MODULATORS AND METHODS THEREOF” (Jawaharlal Nehru Centre for Advanced Scientific Research, priority 2022, published 2025)

Experiments:
[1] = molecular target: T1, preformed Aβ fibrillar aggregates (Homo sapiens, UniProt P05067); test: Dot blot assay of dissolution of preformed Aβ fibrillar aggregates; assay type: biochemical; conditions: Aβ aggregates 10 μM, NMIs 20 μM, 48 h
T1 construct: is a 42 amino acid proteolytic product from the amyloid precursor protein; purchased Invitrogen
T1 sequence (P05067 672-713 limits assumed): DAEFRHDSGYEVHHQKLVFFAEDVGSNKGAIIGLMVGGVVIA
Experimental: Aggregation modulation by toxic Aβ aggregates were assessed and were quantified by dot blot assay. Aβ peptide (10 μM) was dissolved in phosphate buffered saline (PBS, 10 mM, pH 7.4), incubated alone and with NMIs (20 μM) at 37° C. for 48 h. For concentration dependent inhibition, 10 μM Aβ peptide was incubated with 1, 2, 5, 10 and 20 μM of NMIs and incubated. Samples for oligomer inhibition studies were prepared by incubating Aβ alone and with NMIs at 4° C. for 24 and subjected to dot blot analysis. For dissolution studies, Aβ peptide alone was incubated in PBS for 48 h to prepare fibrils and then incubated with NMIs further for 48 h. For dot blot experiment, 5 μL of sample was blotted on activated PVDF (polyvinylidene fluoride) membrane in triplicates and air dried. The membrane was blocked with skimmed milk powder for 1 h at room temperature. The blot paper was washed with tris-buffered saline with 0.01% Tween 20 (TBST) three times for 5 min. Blot paper was treated with fibril specific OC primary antibody (Rabbit, 1:1000 dilution) overnight at 4° C. For oligomers blot A11 anti-oligomer antibody (Rabbit 1:1000) was used. Blot was washed thrice with TBST and treated with HRP-conjugated antirabbit secondary antibody (1:5000 dilutions) for 1 h at room temperature. The bolt was washed thrice for 5 min with TBST and developed with ECL reagent (Biorad) and imaged with ChemiDoc BioRad gel documentation system in autoexposure mode. Blots were analyzed and quantified by ImageJ software. The fibrillar aggregates were formed by incubating Aβ peptide (10 μM) in PBS (pH 7.4) at 37° C. for 48 h. The aggregate samples were treated with NMIs (20 μM) for 48 h followed by dot blot analysis. […] These studies confirmed that M3 as the potential candidate to dissolve Aβ fibrillar aggregates to possibly nontoxic species.

[2] = molecular target: T2, Aβ in the presence of Zn (II) (Homo sapiens, UniProt P05067); test: Zn-dependent Aβ aggregation, native PAGE and western blot; assay type: biochemical; conditions: Aβ 10 μM, Zn (II) 20 μM, NMIs 20 μM, 37° C., 48 h
T2 construct: is a 42 amino acid proteolytic product from the amyloid precursor protein; purchased Invitrogen
T2 sequence (P05067 672-713 limits assumed): as above
Experimental: The samples were prepared by incubating Aβ42 with specific concentration of NMI compounds of present disclosure and metal ions for 48 h and then subjected to 6% native polyacrylamide gel electrophoresis (Native-PAGE) in tris-glycine buffer. The lower molecular weight aggregates permeabilized through the gel and resolved in the gel. Higher molecular aggregates stuck in the upper part of wells and potentially carried in gel. Then the protein was transferred to PVDF membrane for 4 h at cold condition maintained using ice cold transfer buffer and immersing the transfer apparatus in ice. Then the blots were continued similar to dot blots.
The absorbance and fluorescence spectroscopy studies together with mass spectrometry data confirmed the selective Cu (II) or Zn (II) chelation property of M1 and M3. […] Aβ (10 μM) was incubated in the presence of Cu (II) or Zn (II) (20 μM) with NMIs at 37° C. for 48 h and the samples were subjected to native PAGE and western blot analysis. […] Modulation of Zn-dependent Aβ aggregation by M4 was attributed to its two Zn (II) chelation centres. M3 with dopamine and DPA moieties effectively modulated both Cu (II) and Zn (II)-dependent Aβ aggregation. The effect of NMIs on the morphological outcome of metal-dependent Aβ aggregation was visualized by AFM imaging (FIGS. 1E and 1F). Aβ in the presence of Cu (II) and Zn (II) formed dense and thick fibrils.

Aβ = molecular target: T3, Aβ (Homo sapiens, UniProt P05067); test: AFM imaging of Aβ samples; conditions: Aβ 10 μM, NMIs 20 μM; FIG. 1C
T3 construct: is a 42 amino acid proteolytic product from the amyloid precursor protein; purchased Invitrogen
T3 sequence (P05067 672-713 limits assumed): as above
Experimental: AFM imaging was done to understand the morphological characteristics of Aβ and NMI treated samples. The samples from Aβ aggregation inhibition and dissolution studies were used for AFM imaging. 25 μL of sample was drop-casted on freshly cleaved mica substrate. The Aβ samples were allowed to adhere to substrate surface for 15 min, washed with filtered MiliQ water and air dried. The samples were imaged in Scan assist Air mode in Bioscope resolve AFM system (Bruker). The images were processed and analyzed using NanoScope analysis software. […] It has been observed that the oligomers are a highly toxic species compared to Aβ fibrillar aggregates. The ability of NMIs (M3) to inhibit the formation of Aβ oligomers was assessed by dot blot assay. Aβ peptide (10 μM) was incubated with NMIs at 4° C. for 24 h followed by probing with A11 oligomer-specific antibody. […] Native PAGE and western blot analysis was carried out to understand the size distribution of Aβ aggregated species. […] In order to analyse the higher order aggregates not permeable in the gel matrix and the morphological characteristics, Aβ samples were subjected to atomic force microscopy (AFM) imaging.

Aβ fibrils = molecular target: T4, Aβ fibrils (Homo sapiens, UniProt P05067); test: Dot blot assay of Aβ fibrillar aggregation inhibition (OC antibody); assay type: biochemical; conditions: Aβ 10 μM, NMIs 20 μM, PBS pH 7.4, 37° C., 48 h
T4 construct: is a 42 amino acid proteolytic product from the amyloid precursor protein; purchased Invitrogen
T4 sequence (P05067 672-713 limits assumed): as above
Experimental: Aggregation modulation by toxic Aβ aggregates were assessed and were quantified by dot blot assay. Aβ peptide (10 μM) was dissolved in phosphate buffered saline (PBS, 10 mM, pH 7.4), incubated alone and with NMIs (20 μM) at 37° C. for 48 h. For concentration dependent inhibition, 10 μM Aβ peptide was incubated with 1, 2, 5, 10 and 20 μM of NMIs and incubated. Samples for oligomer inhibition studies were prepared by incubating Aβ alone and with NMIs at 4° C. for 24 and subjected to dot blot analysis. For dissolution studies, Aβ peptide alone was incubated in PBS for 48 h to prepare fibrils and then incubated with NMIs further for 48 h. For dot blot experiment, 5 μL of sample was blotted on activated PVDF (polyvinylidene fluoride) membrane in triplicates and air dried. The membrane was blocked with skimmed milk powder for 1 h at room temperature. The blot paper was washed with tris-buffered saline with 0.01% Tween 20 (TBST) three times for 5 min. Blot paper was treated with fibril specific OC primary antibody (Rabbit, 1:1000 dilution) overnight at 4° C. For oligomers blot A11 anti-oligomer antibody (Rabbit 1:1000) was used. Blot was washed thrice with TBST and treated with HRP-conjugated antirabbit secondary antibody (1:5000 dilutions) for 1 h at room temperature. The bolt was washed thrice for 5 min with TBST and developed with ECL reagent (Biorad) and imaged with ChemiDoc BioRad gel documentation system in autoexposure mode. Blots were analyzed and quantified by ImageJ software. The ability of the NMIs, the compounds of the present disclosure M1-M4 to inhibit Aβ aggregation and dissolve the preformed fibrillar aggregates was evaluated by dot blot assay as explained in Example 2 above. Aβ (10 μM) was incubated alone and with NMIs (20 μM) in phosphate buffer saline (PBS, 10 mM and pH 7.4) at 37° C. for 48 h to form Aβ fibrillar aggregates. The samples were blotted and probed with fibril-selective OC antibody (rabbit anti-human amyloid fibrils). […] M3 was further assessed for inhibitory effect at lower concentrations. […] It has been observed that the oligomers are a highly toxic species compared to Aβ fibrillar aggregates. The ability of NMIs (M3) to inhibit the formation of Aβ oligomers was assessed by dot blot assay. Aβ peptide (10 μM) was incubated with NMIs at 4° C. for 24 h followed by probing with A11 oligomer-specific antibody. […] Native PAGE and western blot analysis was carried out to understand the size distribution of Aβ aggregated species. […] In order to analyse the higher order aggregates not permeable in the gel matrix and the morphological characteristics, Aβ samples were subjected to atomic force microscopy (AFM) imaging.

[3] = Metal chelation by UV-visible absorbance and fluorescence spectra; assay type: physicochemical; conditions: NMIs 20 μM, Cu or Zn 2.5 to 40 μM
From the text: The compounds of the present disclosure (NMIs) were designed to chelate with metals (Cu and Zn) and alleviate the metal-dependent Aβ toxicity. […] The change in absorbance and fluorescence spectra of NMIs were monitored to understand the interaction with Cu(II) and Zn(II). […] The fluorescence intensity of M3 at 525 nm decreased with the increasing concentration of Cu(II) or Zn(II) (FIGS. 6(A & B)).

Aβ oligomers = molecular target: T5, Aβ oligomers (Homo sapiens, UniProt P05067); test: Dot blot assay of Aβ oligomer inhibition (A11 antibody); assay type: biochemical; conditions: Aβ 10 μM, NMIs 20 μM, 4° C., 24 h
T5 construct: is a 42 amino acid proteolytic product from the amyloid precursor protein; purchased Invitrogen
T5 sequence (P05067 672-713 limits assumed): as above
Experimental: Aggregation modulation by toxic Aβ aggregates were assessed and were quantified by dot blot assay. Aβ peptide (10 μM) was dissolved in phosphate buffered saline (PBS, 10 mM, pH 7.4), incubated alone and with NMIs (20 μM) at 37° C. for 48 h. For concentration dependent inhibition, 10 μM Aβ peptide was incubated with 1, 2, 5, 10 and 20 μM of NMIs and incubated. Samples for oligomer inhibition studies were prepared by incubating Aβ alone and with NMIs at 4° C. for 24 and subjected to dot blot analysis. For dissolution studies, Aβ peptide alone was incubated in PBS for 48 h to prepare fibrils and then incubated with NMIs further for 48 h. For dot blot experiment, 5 μL of sample was blotted on activated PVDF (polyvinylidene fluoride) membrane in triplicates and air dried. The membrane was blocked with skimmed milk powder for 1 h at room temperature. The blot paper was washed with tris-buffered saline with 0.01% Tween 20 (TBST) three times for 5 min. Blot paper was treated with fibril specific OC primary antibody (Rabbit, 1:1000 dilution) overnight at 4° C. For oligomers blot A11 anti-oligomer antibody (Rabbit 1:1000) was used. […] Blots were analyzed and quantified by ImageJ software. […] The ability of NMIs (M3) to inhibit the formation of Aβ oligomers was assessed by dot blot assay. […]

| Structure (SMILES) | dissolution efficiency [1] | Zn-dependent Aβ aggregation [2] | morphology of Aβ sample, aggregation inhibition (Aβ) | inhibition of the formation of Aβ fibrils (Aβ fibrils) | interaction with Cu (II) and Zn (II), change in absorbance spectra [3] | oligomer inhibition (Aβ oligomers) |
| --- | --- | --- | --- | --- | --- | --- |
| O=C1c2cccc3c(N(Cc4ccccn4)Cc4ccccn4)ccc(c23)C(=O)N1CCN(Cc1ccccn1)Cc1ccccn1 [M4, 6-(bis(pyridin-2-ylmethyl)amino)-2-(2-(bis(pyridin-2-ylmethyl)amino)ethyl)-1H-benzo[de]isoquinoline-1,3(2H)-dione] | 43% | reduce Zn-dependent Aβ aggregation | fibrillar structures | ~11% | no significant change in the spectra |  |
| CN(C)c1ccc2c3c(cccc13)C(=O)N(CCN(Cc1ccccn1)Cc1ccccn1)C2=O [M2, 2-(2-(bis(pyridin-2-ylmethyl)amino)ethyl)-6-(dimethylamino)-1H-benzo[de]isoquinoline-1,3(2H)-dione] | 25% |  | fibrillar structures | ~11% | no significant change in the spectra | 40% |
